How the values were obtained:
[1] = system: LNCaP spheroids; experiment: LNCaP spheroid growth (volume monitoring); type: cell-based, human; conditions: for growth delay: 5-day incubation, vs untreated
Procedure: Cell concentrations were determined by counting trypsinized cells with a hemocytometer. […] The entire content of the above references is hereby incorporated by reference.
The medium was inoculated at 6.7×10^4 cells/mL from trypsinized stock cultures. The resulting suspension was used to seed 100 mm plates with approximately 10^6 cells. After an incubation of 5-7 days, spheroids of ˜200 μm diameter were selected under an inverted phase-contrast microscope (Axiophot 2; Carl Zeiss Ltd., Gottingen, Germany) fitted with an ocular scale using an Eppendorf pipette.
TREATMENT PROTOCOLS: After each treatment, spheroids were washed three times by suspension in fresh medium. […] A minimum of 12 spheroids was used for each condition in duplicate experiments.
The antibody was obtained from the laboratory of David Scheinberg, M. D., Ph.D., Memorial Sloan-Kettering Cancer Center.
Following complete treatment, washed spheroids were placed in separate agar-prepared wells of a 24 well plate. Untreated spheroids were washed and separated immediately after initial selection. The medium in each well was replaced, and volume measurements preformed, twice per week. Using the inverted microscope and ocular scale described previously, the major and minor diameter, dmax and dmin respectively, were determined and spheroid volume calculated as V=(⅙)·π·dmax·dmin^2. Volume monitoring was stopped once a spheroid had exceeded the field of view of the microscope or had fragmented into individual cells or multiple smaller cell clusters.
We describe this relationship through the inequality:
avg(V|S=5M, R=6 Gy)<C+{avg(V|S=5 μM, R=0)−C}+{avg(V|S=0, R=6 Gy)−C}
To test for synergy, we computed 2000 bootstrap replicates of the average log AUC, for each of the four groups, and computed the proportion of replicates where the inequality was not obtained. This proportion is termed the achieved significance level (p-value).

[2] = system: LNCaP spheroids; experiment: TUNEL staining of spheroid sections (apoptosis); type: cell-based, human; conditions: for TUNEL staining (apoptosis): SAHA alone
Procedure: At 0, 6, 24, or 48 h post treatment spheroids were washed in cold media, fixed for 4 hr in 4% paraformaldehyde, and placed in paraffin blocks. Serial 5-μm sections of the blocks were cut using a microtome and mounted on poly-L-lysine-coated slides that were fixed in ice cold acetone for 10 min.
A final, 2 min incubation in Hematoxylin was used to counterstain sections. Untreated spheroids were used as controls; positive controls were created using DNase I (Boehringer, Ingelheim, Germany). Images were captured digitally from an inverted phase-contrast microscope using a coupled Pixera Professional Camera and associated software (Pixera Visual Communication Suite, Pixera, Los Gatos, Calif.). Images were scored for positive staining as percentage of reactive cells within the spheroid section.
A two-tailed T test was used to test for significant differences in the percentage of positively stained cells.

[3] = system: prostate tumor xenografts; conditions: nude mice (Butler et al. 2000); cited from earlier work
[4] = system: LNCaP monolayer cell culture; conditions: cited from earlier work
[5] = system: LNCaP spheroids; experiment: Outgrowth assay (colony formation) of spheroids that did not regrow; type: cell-based, human; conditions: 5 μM SAHA 96 h in combination with 6 Gy external beam radiation
[6] = continuous exposure at 5 μM SAHA

With “Ac225-HuM195: recombinant humanized Anti-CD33 monoclonal antibody which has been radiolabelled with actinium225” the spheroid growth ([1]; 100 nCi/mL Ac225-HuM195 for 24 hours alone) was “did not cause growth inhibition”.
For `O=C(CCCCCCC(=O)Nc1ccccc1)NO` [SAHA, Suberoylanilide hydroxamic acid], the “TUNEL staining (apoptosis)” value ([2]; 48 h after the end of SAHA incubation (5 μM, 96 h)) was “apoptotic cells are found throughout the spheroid”, the “TUNEL staining pattern compared with SAHA alone” value ([2]; SAHA (5 μM, 96 h) and 6 Gy radiation) was “almost identical pattern” and the “mode of cell death following exposure to SAHA” value ([2]; TUNEL staining and spheroid morphology) was “predominantly by apoptosis”. The “TUNEL staining (apoptosis)” value ([2]; immediately after the end of a 96 h SAHA incubation (5 μM)) was “majority of cells on the spheroid surface have undergone apoptosis”, the toxicity [3] was “minimal to no detectable toxicity” and the monolayer cell growth ([4]; 2.5 μM SAHA, over a 4-day period (Butler et al. 2000)) was “complete growth suppression with minimal to no cell kill”. For the same compound, the monolayer cell kill ([4]; 5 μM SAHA (Butler et al. 2000)) was “progressive cell kill starting after 48 hours”, the “spheroids forming colonies in the outgrowth assay” value [5] was “none of the 12 spheroids forming colonies” and the growth delay ([1]; 1.25 μM SAHA) was 4 days. The spheroid growth ([1]; 1.25 μM SAHA, 120-hour and continuous exposure) was “delayed but not arrested”, the growth delay ([1]; 2.5 μM SAHA) was 7 days and the spheroid growth ([1]; 2.5 μM SAHA, over the 120 h incubation period) was “complete growth arrest”. For the same compound, the “statistical analysis of synergy (log AUC of tumor volume curve, bootstrap)” value ([1]; 5 μM SAHA 96 h + 6 Gy vs additive model, p<0.01) was “synergistic inhibition of tumor growth”, the spheroid growth ([1]; 5 μM SAHA 96 h in combination with 6 Gy external beam radiation after 48 h) was “complete growth inhibition” and the “delay in spheroid growth” value ([1]; 5 μM SAHA 120 h in combination with 3 Gy external beam radiation) was 7 days. For the same compound, the growth delay ([1]; 5 μM SAHA) was 13 days, the “time of incubation until complete spheroid disruption” value ([1]; 5 μM SAHA, continuous incubation) was 13 to 16 days and the median volume reduction ([1]; 5 μM SAHA, five days following a 120 hour incubation) was 2.4 fold. The spheroid growth ([1]; 24 hour exposure to 100 nCi/mL Ac225-HuM195 followed by 96 h incubation with 5 μM SAHA) was “complete growth inhibition”, the “initial delay of spheroid growth” value ([1]; 96 h exposure to 5 μM SAHA alone (Example 5)) was 10 days and the “spheroid growth after the initial delay” value ([1]; 96 h exposure to 5 μM SAHA alone, after a period of 30 days (Example 5)) was “spheroid growth to almost the levels of control untreated spheroid volume”. The spheroid growth ([1]; continuous exposure at 2.5 μM SAHA) was “complete growth suppression”, the “day by which the majority of spheroids disaggregated” value [1, 6] was at most 20 days and the spheroid volume [1, 6] was “rapid loss in spheroid volume”.

— patent publication US20090054720A1, “Use of histone deacetylase inhibitors in combination with radiation for the treatment of cancer” (priority 2002, published 2009)
